We go through 15 molecules from PubChem BioAssay AID256 (DTP/NCI, 2004).

The test system of the experiment is CD2F1 mice, L1210 leukemia ip, survival T/C. The experiment can be described thus: NCI In Vivo Anticancer Drug Screen. Data for tumor model L1210 Leukemia (intraperitoneal) in CD2F1 (CDF1) mice. Conditions: higher = longer survival. The method in brief: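 Mice carrying a transplanted tumor received test compound or vehicle alone. The value is the measurement in the treated group divided by that in the vehicle-treated control group.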

Where [1] appears, read: endpoint: mean survival time, dose: 25.0 mg/kg/injection, schedule: Q01DX009 (ip), vehicle: saline.
The mark [2] stands for this setting: endpoint: mean survival time, dose: 50.0 mg/kg/injection, schedule: Q01DX009 (ip), vehicle: saline.
[3] abbreviates: endpoint: mean survival time, dose: 100.0 mg/kg/injection, schedule: Q01DX009 (ip), vehicle: saline.
Setting [4] is: endpoint: median survival time, dose: 12.5 mg/kg/injection, schedule: Q01DX009 (ip), vehicle: saline.
Where [5] appears, read: endpoint: median survival time, dose: 50.0 mg/kg/injection, schedule: Q01DX009 (ip), vehicle: saline.
[6] abbreviates: endpoint: mean survival time, dose: 5.0 mg/kg/injection, schedule: Q01DX009 (ip), vehicle: saline.
[7] abbreviates: endpoint: mean survival time, dose: 10.0 mg/kg/injection, schedule: Q01DX009 (ip), vehicle: saline.
The mark [8] stands for this setting: endpoint: mean survival time, dose: 100.0 mg/kg/injection, schedule: Q01DX009 (ip), vehicle: saline with Tween-80.

Each structure is given as a SMILES string. “And” between values parts separate entries of the source, which are not always exact repeats. Equal values may be shown once. Inconclusive results and toxic doses are left out.

On to `CN1CCN(c2ccc3nc(-c4ccc5nc(-c6ccc(O)cc6)[nH]c5c4)[nH]c3c2)CC1`, for which the T/C is 124 % of control (endpoint: mean survival time, dose: 6.25 mg/kg/injection, schedule: Q01DX009 (ip), vehicle: saline); 124 % of control (endpoint: mean survival time, dose: 12.5 mg/kg/injection, schedule: Q01DX009 (ip), vehicle: saline); 183 % of control under setting [1]; 238 % of control and 314 % of control under setting [2]; 294 % of control under setting [3]; 124 % of control (endpoint: median survival time, dose: 6.25 mg/kg/injection, schedule: Q01DX009 (ip), vehicle: saline). Besides, the T/C under setting [4] is 117 % of control and 120 % of control; the T/C (endpoint: median survival time, dose: 18.0 mg/kg/injection, schedule: Q01DX005 (ip), vehicle: saline) is 119 % of control; the T/C (endpoint: median survival time, dose: 18.0 mg/kg/injection, schedule: Q01DX005 (iv), vehicle: saline) was 116 % of control; the T/C (endpoint: median survival time, dose: 37.0 mg/kg/injection, schedule: Q01DX005 (iv), vehicle: saline) was 115 % of control; the T/C (endpoint: median survival time, dose: 50.0 mg/kg/injection, schedule: Q01DX005 (oral), vehicle: saline) is 101 % of control; the T/C under setting [5] was 226 % of control and 344 % of control. Besides, the T/C (endpoint: median survival time, dose: 75.0 mg/kg/injection, schedule: Q01DX005 (ip), vehicle: saline) is 151 % of control; the T/C (endpoint: median survival time, dose: 100.0 mg/kg/injection, schedule: Q01DX005 (oral), vehicle: saline) is 96 % of control; the T/C (endpoint: median survival time, dose: 150.0 mg/kg/injection, schedule: Q01DX005 (ip), vehicle: saline) is 348 % of control; the T/C (endpoint: median survival time, dose: 200.0 mg/kg/injection, schedule: Q01DX005 (oral), vehicle: saline) is 94 % of control; the T/C (endpoint: median survival time, dose: 200.0 mg/kg/injection, schedule: Q01DX009 (ip), vehicle: saline) is 116 % of control and 91 % of control; the T/C (endpoint: median survival time, dose: 400.0 mg/kg/injection, schedule: Q01DX005 (oral), vehicle: saline) was 96 % of control. Where the note is “endpoint: median survival time, dose: 800.0 mg/kg/injection, schedule: Q01DX005 (oral), vehicle: saline”, the T/C was 94 % of control.
With `CCOc1nc2nc[nH]c(=O)c2cc1C#N`, the T/C was 90 % of control (endpoint: mean survival time, dose: 12.5 mg/kg/injection, schedule: Q04DX002 (ip), vehicle: saline with Tween-80); 93 % of control (endpoint: mean survival time, dose: 25.0 mg/kg/injection, schedule: Q04DX002 (ip), vehicle: saline with Tween-80); 104 % of control (endpoint: mean survival time, dose: 50.0 mg/kg/injection, schedule: Q04DX002 (ip), vehicle: saline with Tween-80); 107 % of control (endpoint: mean survival time, dose: 100.0 mg/kg/injection, schedule: Q01DX001 (ip), vehicle: saline with Tween-80); 95 % of control (endpoint: mean survival time, dose: 200.0 mg/kg/injection, schedule: Q01DX001 (ip), vehicle: saline with Tween-80).
As for `CCN(CC)CCN(C)N=Nc1ccccc1C(=O)NN`, the T/C was 105 % of control (endpoint: mean survival time, dose: 72.0 mg/kg/injection, schedule: Q01DX001 (ip), vehicle: saline) and 100 % of control (endpoint: mean survival time, dose: 145.0 mg/kg/injection, schedule: Q01DX001 (ip), vehicle: saline).
Consider `CN(C)NCc1ccccc1`, for which the T/C runs as follows: under setting [1], 102 % of control; under setting [2], 102 % of control; under setting [3], 94 % of control and 107 % of control.
`CCOP(=O)(N1CC1(C)C)N1CC1(C)C` (stereo not drawn): the T/C runs as follows: under setting [6], 104 % of control; under setting [7], 114 % of control; (endpoint: mean survival time, dose: 30.0 mg/kg/injection, schedule: Q01DX009 (ip), vehicle: saline) 162 % of control; under setting [2], 225 % of control; (endpoint: mean survival time, dose: 80.0 mg/kg/injection, schedule: Q01DX009 (ip), vehicle: saline) 307 % of control; (endpoint: mean survival time, dose: 120.0 mg/kg/injection, schedule: Q01DX009 (ip), vehicle: saline) 102 % of control.
As to `CCN(CC)c1ccc(N)cc1`, the T/C reads like this: under setting [6], 96 % of control; (endpoint: mean survival time, dose: 5.0 mg/kg/injection, schedule: Q04DX003 (ip), vehicle: saline) 96 % of control; under setting [7], 96 % of control; (endpoint: mean survival time, dose: 10.0 mg/kg/injection, schedule: Q04DX003 (ip), vehicle: saline) 97 % of control; (endpoint: mean survival time, dose: 20.0 mg/kg/injection, schedule: Q01DX009 (ip), vehicle: saline) 100 % of control; (endpoint: mean survival time, dose: 20.0 mg/kg/injection, schedule: Q04DX003 (ip), vehicle: saline) 94 % of control.
As for `CC(C)C(N)C(=O)Nc1nncs1` (stereo not drawn), the T/C was 103 % of control under setting [1]; 110 % of control under setting [2]; 166 % of control under setting [3]; 117 % of control and 97 % of control (endpoint: mean survival time, dose: 200.0 mg/kg/injection, schedule: Q01DX009 (ip), vehicle: saline); 89 % of control and 90 % of control (endpoint: mean survival time, dose: 400.0 mg/kg/injection, schedule: Q01DX009 (ip), vehicle: saline); 94 % of control under setting [4]. Further, the T/C was 109 % of control and 112 % of control (endpoint: median survival time, dose: 25.0 mg/kg/injection, schedule: Q01DX009 (ip), vehicle: saline); 151 % of control under setting [5]; 158 % of control (endpoint: median survival time, dose: 100.0 mg/kg/injection, schedule: Q01DX009 (ip), vehicle: saline); 95 % of control (endpoint: median survival time, dose: 400.0 mg/kg/injection, schedule: Q01DX009 (ip), vehicle: saline).
Regarding `CC1=NNC2c3ccccc3-c3ccccc3N2C1` (stereo not drawn), the T/C is, setting by setting: (endpoint: mean survival time, dose: 100.0 mg/kg/injection, schedule: Q01DX001 (ip), vehicle: saline) 94 % of control; (endpoint: mean survival time, dose: 200.0 mg/kg/injection, schedule: Q01DX001 (ip), vehicle: saline) 93 % of control; (endpoint: mean survival time, dose: 400.0 mg/kg/injection, schedule: Q01DX001 (ip), vehicle: saline) 98 % of control.
As for `N#C[Se]CC[Se]C#N`, the T/C is 94 % of control (endpoint: mean survival time, dose: 6.25 mg/kg/injection, schedule: Q01DX001 (ip), vehicle: saline with Tween-80); 98 % of control (endpoint: mean survival time, dose: 12.5 mg/kg/injection, schedule: Q01DX001 (ip), vehicle: saline with Tween-80); 103 % of control (endpoint: mean survival time, dose: 25.0 mg/kg/injection, schedule: Q01DX001 (ip), vehicle: saline with Tween-80).
Regarding `CCc1cccc[n+]1Cc1ccccc1`, the T/C (endpoint: mean survival time, dose: 3.13 mg/kg/injection, schedule: Q01DX009 (ip), vehicle: saline with Tween-80) was 95 % of control; the T/C (endpoint: mean survival time, dose: 6.25 mg/kg/injection, schedule: Q01DX009 (ip), vehicle: saline with Tween-80) is 91 % of control; the T/C (endpoint: mean survival time, dose: 12.5 mg/kg/injection, schedule: Q01DX009 (ip), vehicle: saline with Tween-80) was 98 % of control.
As for `C1=C(CN2CCCCC2)COc2ccccc21`, the T/C was 107 % of control (endpoint: mean survival time, dose: 37.5 mg/kg/injection, schedule: Q04DX003 (ip), vehicle: saline); 98 % of control (endpoint: mean survival time, dose: 75.0 mg/kg/injection, schedule: Q01DX001 (ip), vehicle: saline); 104 % of control (endpoint: mean survival time, dose: 75.0 mg/kg/injection, schedule: Q04DX003 (ip), vehicle: saline); 97 % of control (endpoint: mean survival time, dose: 150.0 mg/kg/injection, schedule: Q01DX001 (ip), vehicle: saline); 104 % of control (endpoint: mean survival time, dose: 150.0 mg/kg/injection, schedule: Q04DX003 (ip), vehicle: saline).
Regarding `CC(C)[C@](O)(C(=O)OCC1=CCN2CC[C@@H](O)[C@@H]12)[C@H](C)O`, the T/C by setting is: (endpoint: median survival time, dose: 12.5 mg/kg/injection, schedule: Q01DX009 (ip), vehicle: water) 103 % of control; (endpoint: median survival time, dose: 25.0 mg/kg/injection, schedule: Q01DX009 (ip), vehicle: water) 100 % of control; (endpoint: median survival time, dose: 50.0 mg/kg/injection, schedule: Q01DX009 (ip), vehicle: water) 98 % of control; (endpoint: median survival time, dose: 100.0 mg/kg/injection, schedule: Q01DX009 (ip), vehicle: water) 122 % of control; (endpoint: median survival time, dose: 200.0 mg/kg/injection, schedule: Q01DX009 (ip), vehicle: water) 112 % of control; (endpoint: median survival time, dose: 400.0 mg/kg/injection, schedule: Q01DX009 (ip), vehicle: water) 112 % of control.
For `Cc1ccc(NC(=S)NCCO)cc1C`, under setting [8], the T/C is 114 % of control.
`CC1(C)CC(=O)C=C(OCCc2ccccc2)C1`: the T/C is 102 % of control under setting [8]; 102 % of control (endpoint: mean survival time, dose: 200.0 mg/kg/injection, schedule: Q01DX009 (ip), vehicle: saline with Tween-80); 102 % of control (endpoint: mean survival time, dose: 400.0 mg/kg/injection, schedule: Q01DX009 (ip), vehicle: saline with Tween-80).
For `NC(=S)Nc1ccc([N+](=O)[O-])cc1`, the T/C (endpoint: mean survival time, dose: 25.0 mg/kg/injection, schedule: Q04DX003 (ip), vehicle: other) was 96 % of control; the T/C (endpoint: mean survival time, dose: 50.0 mg/kg/injection, schedule: Q04DX003 (ip), vehicle: other) was 91 % of control; the T/C (endpoint: mean survival time, dose: 100.0 mg/kg/injection, schedule: Q04DX003 (ip), vehicle: other) is 88 % of control and 95 % of control.
